Measured values: the supplement of paper PMC4862054
Several values for one entry are separate records, joined by “and”; a condition that tells them apart may be missing. Identical values can stand only once.

Key:
Experiment in all cases: drug sensitivity score (DSS), CellTiter-Blue viability (DSS (AUC-based score)); higher = stronger viability inhibition; extreme values may be limits of the assay
Settings in all cases: incubation time: 72 h
BT-474 = tested on: BT-474
Description: (§1)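 DSRT with the CellTiter-Blue (resazurin reduction) viability readout, fluorescence 560/590 nm, 72 h incubation. Plates were normalised to DMSO and benzethonium chloride controls. DSS is computed from the area under the fitted dose-response curve (5 or 9 concentrations).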

BT-549 = tested on: BT-549
Description: as §1

CAL-120 = tested on: CAL-120
Description: as §1

CAL-148 = tested on: CAL-148
Description: as §1

CAL-51 = tested on: CAL-51
Description: as §1

CAL-85-1 = tested on: CAL-85-1
Description: as §1

DU-4475 = tested on: DU-4475
Description: as §1

HCC1143 = tested on: HCC1143
Description: as §1

HCC1599 = tested on: HCC1599
Description: as §1

HCC1937 = tested on: HCC1937
Description: as §1

HDQ-P1 = tested on: HDQ-P1
Description: as §1

Hs578T = tested on: Hs578T
Description: as §1

MDA-MB-231 = tested on: MDA-MB-231
Description: as §1

MDA-MB-436 = tested on: MDA-MB-436
Description: as §1

MDA-MB-453 = tested on: MDA-MB-453
Description: as §1

MDA-MB-468 = tested on: MDA-MB-468
Description: as §1

MFM-223 = tested on: MFM-223
Description: as §1

SK-BR-3 = tested on: SK-BR-3
Description: as §1

| Structure (SMILES) | drug sensitivity score (BT-474) | drug sensitivity score (BT-549) | drug sensitivity score (CAL-120) | drug sensitivity score (CAL-148) | drug sensitivity score (CAL-51) | drug sensitivity score (CAL-85-1) | drug sensitivity score (DU-4475) | drug sensitivity score (HCC1143) | drug sensitivity score (HCC1599) | drug sensitivity score (HCC1937) | drug sensitivity score (HDQ-P1) | drug sensitivity score (Hs578T) | drug sensitivity score (MDA-MB-231) | drug sensitivity score (MDA-MB-436) | drug sensitivity score (MDA-MB-453) | drug sensitivity score (MDA-MB-468) | drug sensitivity score (MFM-223) | drug sensitivity score (SK-BR-3) |
| --- | --- | --- | --- | --- | --- | --- | --- | --- | --- | --- | --- | --- | --- | --- | --- | --- | --- | --- |
| CC(=O)[C@]1(O)Cc2c(O)c3c(c(O)c2[C@@H](O[C@H]2C[C@H](N)[C@H](O)[C@H](C)O2)C1)C(=O)c1ccccc1C3=O [Idarubicin] | 10.2 | 11.5 | 14.5 | 19.7 | 21 | 6.93 | 18.3 | 8.64 | 0.917 | 21.4 | 6.33 | 11.4 | 11.9 | 9.77 | 4.55 | 14.2 | 6 | 17.7 |
| C/C(=C\c1csc(C)n1)[C@@H]1C[C@@H]2O[C@]2(C)CCC[C@H](C)[C@H](O)[C@@H](C)C(=O)C(C)(C)[C@@H](O)CC(=O)N1 [Ixabepilone] | 2.15 | 3.35 | 0.647 | 2.58 | 0.607 | 2.08 | 2.31 | 1.78 | 1.1 | 5.41 | 0 | 2.45 | 10.5 | 4.17 | 3.24 | 3.09 | 2.45 | 3.73 |
| C=CCn1c(=O)c2cnc(Nc3ccc(N4CCN(C)CC4)cc3)nc2n1-c1cccc(C(C)(C)O)n1 [MK1775] | 13 | 13.3 | 16 | 18.3 | 16.2 | 11.1 | 15 | 9.62 | 7.82 | 15 | 13.6 | 14.2 | 15 | 13.3 | 15.1 | 11.5 | 12.4 | 20.4 |
| CN(Cc1cnc2nc(N)nc(N)c2n1)c1ccc(C(=O)N[C@@H](CCC(=O)O)C(=O)O)cc1 [Methotrexate] | 0 | 0 | 17.3 | 9.98 | 15.1 | 9.69 | 0 | 10.5 | 0 | 0 | 0 | 4.17 | 0 | 0 | 0 | 18.6 | 0 | 16.2 |
| COc1c2occc2cc2ccc(=O)oc12 [Methoxsalen] | 0 | 0 | 0 | 1.28 | 0 | 0.682 | 0.558 | 0 | 0 | 0 | 0 | 0 | 0 | 0 | 1.68 | 0 | 0 | 0 |
| CO[C@@H]1[C@H](N(C)C(=O)c2ccccc2)C[C@H]2O[C@]1(C)n1c3ccccc3c3c4c(c5c6ccccc6n2c5c31)C(=O)NC4 [Midostaurin] | 0 | 9.72 | 8.21 | 0 | 19.4 | 3.45 | 15.8 | 4.83 | 3.48 | 10 | 10.9 | 14.9 | 9.28 | 8.07 | 7.82 | 9.5 | 4.68 | 6.46 |
| CO[C@@]12[C@H](COC(N)=O)C3=C(C(=O)C(C)=C(N)C3=O)N1C[C@@H]1N[C@@H]12 [Mitomycin C] | 3.1 | 4.28 | 2.85 | 5.96 | 2.74 | 4.52 | 3.3 | 8.46 | 8.65 | 14.1 | 2.19 | 4.97 | 5.97 | 6.47 | 5.18 | 7.16 | 4.69 | 9.21 |
| CCNC(=O)c1noc(-c2cc(C(C)C)c(O)cc2O)c1-c1ccc(CN2CCOCC2)cc1 [NVP-AUY922] | 15.2 | 19.6 | 21.3 | 18.1 | 18.6 | 16 | 21.7 | 9.99 | 9.96 | 26.1 | 18 | 18.8 | 17.3 | 20.7 | 20.8 | 19.4 | 20.9 | 22.8 |
| CC1(C)CCC(c2ccc(Cl)cc2)=C(CN2CCN(c3ccc(C(=O)NS(=O)(=O)c4ccc(N[C@H](CCN5CCOCC5)CSc5ccccc5)c(S(=O)(=O)C(F)(F)F)c4)cc3)CC2)C1 [Navitoclax] | 0 | 3.17 | 6.12 | 4.37 | 0 | 0 | 17.2 | 0 | 5.97 | 0 | 9.87 | 0 | 7.75 | 0 | 0 | 3.12 | 2.7 | 0 |
| Cc1cn(-c2cc(NC(=O)c3ccc(C)c(Nc4nccc(-c5cccnc5)n4)c3)cc(C(F)(F)F)c2)cn1 [Nilotinib] | 0 | 6.16 and 6.02 | 0 | 0 | 0 | 0 | 0 | 0 | 0 | 6.24 and 6.45 | 0 | 0 | 4.55 and 5.18 | 0 | 0 | 0 | 0 | 0 |
| C=CCN(/C=C1/C(=O)O[C@H](COC)[C@@]2(C)C1=C(O)C(=O)C1=C2[C@H](OC(C)=O)C[C@]2(C)C(=O)CC[C@@H]12)CC=C [PX-866] | 5.22 | 0 | 2.93 | 0 | 0 | 0 | 0 | 3.95 | 0 | 5.15 | 3.65 | 3.48 | 5.75 | 0 | 0 | 8.51 | 0 | 9.05 |
| CC[C@H](CO)Nc1nc(NCc2ccccc2)c2ncn(C(C)C)c2n1 [Roscovitine] | 0 | 2.4 | 0 | 0 | 0 | 0 | 0 | 5.44 | 2.39 | 0 | 0 | 2.74 | 0 | 0.894 | 0 | 0 | 0 | 0 |
